In patent publication US20250025439A1, “DERIVATIVES OF NIFUROXAZIDE FOR USE IN THE TREATMENT OF MITOCHONDRIAL DISORDERS AND NEURODEGENERATIVE DISEASES” (priority 2021, published 2025):

Biological target: T1, Pleckstrin homology-like domain family B member 2 (PHLDB2) (Homo sapiens, UniProt Q86SQ0)
T1 construct: Protein extracts from human fibroblasts were incubated with magnetic beads; endogenous in cells; host or cells: human fibroblast lysate
T1 sequence (Q86SQ0 1-1253): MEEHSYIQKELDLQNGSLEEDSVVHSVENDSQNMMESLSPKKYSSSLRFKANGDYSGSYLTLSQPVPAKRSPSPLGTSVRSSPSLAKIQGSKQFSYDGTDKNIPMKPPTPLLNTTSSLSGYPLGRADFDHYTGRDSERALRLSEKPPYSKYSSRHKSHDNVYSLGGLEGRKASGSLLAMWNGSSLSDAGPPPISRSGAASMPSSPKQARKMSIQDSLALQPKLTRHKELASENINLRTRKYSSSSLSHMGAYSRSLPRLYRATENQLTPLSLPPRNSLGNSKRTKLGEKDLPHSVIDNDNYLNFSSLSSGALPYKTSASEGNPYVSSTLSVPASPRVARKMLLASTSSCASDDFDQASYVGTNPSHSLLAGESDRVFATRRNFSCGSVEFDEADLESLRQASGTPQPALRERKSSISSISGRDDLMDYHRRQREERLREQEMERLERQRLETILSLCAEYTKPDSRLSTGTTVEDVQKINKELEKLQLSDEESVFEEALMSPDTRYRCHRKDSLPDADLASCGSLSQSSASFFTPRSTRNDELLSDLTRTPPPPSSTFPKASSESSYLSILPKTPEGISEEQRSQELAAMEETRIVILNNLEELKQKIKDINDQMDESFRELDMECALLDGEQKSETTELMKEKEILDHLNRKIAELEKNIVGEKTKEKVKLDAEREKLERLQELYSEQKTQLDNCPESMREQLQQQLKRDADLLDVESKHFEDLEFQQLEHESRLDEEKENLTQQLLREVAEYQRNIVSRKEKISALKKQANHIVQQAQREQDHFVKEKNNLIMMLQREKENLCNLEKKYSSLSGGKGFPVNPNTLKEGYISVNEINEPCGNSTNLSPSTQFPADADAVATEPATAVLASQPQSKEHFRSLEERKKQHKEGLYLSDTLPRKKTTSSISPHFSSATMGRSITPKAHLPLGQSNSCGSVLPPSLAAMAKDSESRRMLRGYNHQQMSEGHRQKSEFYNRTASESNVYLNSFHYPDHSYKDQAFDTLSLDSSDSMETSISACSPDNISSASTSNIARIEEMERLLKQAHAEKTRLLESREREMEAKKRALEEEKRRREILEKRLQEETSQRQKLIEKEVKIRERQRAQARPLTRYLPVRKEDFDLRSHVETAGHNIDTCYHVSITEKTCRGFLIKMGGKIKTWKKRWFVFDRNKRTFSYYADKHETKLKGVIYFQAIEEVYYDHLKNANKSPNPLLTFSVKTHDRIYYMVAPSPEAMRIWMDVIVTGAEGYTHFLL
Assay: Affinity chromatography with NFX-beads and mass spectrometry
Assay type: binding
Settings: spectral counts, NFX coupled beads vs beads alone, human fibroblast extracts

Structure (SMILES): O=C(N/N=C/c1ccc([N+](=O)[O-])o1)c1ccc(O)cc1 [NFX, (E)-4-hydroxy-N′-((5-nitrofuran-2-yl)methylene)benzohydrazide]
- Fold change: 91.67
